Laboratory results: patent US9920010B2, “CXCR7 receptor modulators” (IDORSIA PHARMACEUTICALS LTD, priority 2013, dated 2018)

target: T1, CXCR7 (Homo sapiens, UniProt P25106); test: PathHunter CHO-K1 CXCR7 b-arrestin recruitment assay (CXCR7 agonistic activity); type: cell-based; conditions: PathHunter CHO-K1 CXCR7 b-arrestin cell line
T1 construct: host or cells: CHO-K1 (PathHunter CHO-K1 CXCR7 b-arrestin cell line, stably transfected)
Procedure, shortened: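 Stable CHO-K1 line with C-terminally ProLink-tagged CXCR7 and β-arrestin 2–EA fusion; β-arrestin recruitment restores β-gal activity, read by chemiluminescence after 1 h RT detection. Cells seeded 24 h, starved in OPTIMEM 3–4 h, exposed to compounds 90 min at 37 °C in HBSS/HEPES/BSA. Geometric-mean EC50 from repeated measurements.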

T1 sequence (P25106 whole entry): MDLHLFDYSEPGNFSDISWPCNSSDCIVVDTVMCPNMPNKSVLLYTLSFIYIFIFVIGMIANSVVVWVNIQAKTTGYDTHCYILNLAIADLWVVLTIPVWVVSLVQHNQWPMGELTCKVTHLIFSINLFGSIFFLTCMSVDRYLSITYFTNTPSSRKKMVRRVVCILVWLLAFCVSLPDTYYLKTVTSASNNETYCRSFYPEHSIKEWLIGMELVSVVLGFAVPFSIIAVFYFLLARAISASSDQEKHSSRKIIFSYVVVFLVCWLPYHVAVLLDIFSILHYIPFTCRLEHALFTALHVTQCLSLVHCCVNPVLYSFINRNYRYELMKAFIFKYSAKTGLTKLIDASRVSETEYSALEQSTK
T1 sequence (P32121 whole entry partner): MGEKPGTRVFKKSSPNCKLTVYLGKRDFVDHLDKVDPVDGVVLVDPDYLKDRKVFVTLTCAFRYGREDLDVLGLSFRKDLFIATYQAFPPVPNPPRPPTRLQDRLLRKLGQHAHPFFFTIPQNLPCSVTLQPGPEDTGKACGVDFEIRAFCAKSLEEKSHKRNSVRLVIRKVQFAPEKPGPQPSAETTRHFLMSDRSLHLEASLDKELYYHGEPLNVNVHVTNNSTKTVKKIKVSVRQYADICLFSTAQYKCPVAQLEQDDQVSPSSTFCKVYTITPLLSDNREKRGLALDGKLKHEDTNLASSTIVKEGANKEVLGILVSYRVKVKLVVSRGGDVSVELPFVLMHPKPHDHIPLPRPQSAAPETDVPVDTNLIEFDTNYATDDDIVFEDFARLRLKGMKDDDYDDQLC

EC50	SMILES
32 nM	CCOC(=O)N1CCc2c(cccc2NCC(=O)N(CCNC)Cc2ccccc2C(F)(F)F)C1 [compound 395, 5-({[(2-Methylamino-ethyl)-(2-trifluoromethyl-benzyl)-carbamoyl]-methyl}-amino)-3,4-dihydro-1H-isoquinoline-2-carboxylic acid ethyl ester]
38 nM	C#CCOC(=O)N1CCc2c(cccc2NCC(=O)N(CCNC)Cc2ccccc2C(F)(F)F)C1 [compound 396, 5-({[(2-Methylamino-ethyl)-(2-trifluoromethyl-benzyl)-carbamoyl]-methyl}-amino)-3,4-dihydro-1H-isoquinoline-2-carboxylic acid prop-2-ynyl ester]
35 nM	C=CCOC(=O)N1CCc2c(cccc2NCC(=O)N(CCNC)Cc2ccccc2C(F)(F)F)C1 [compound 397, 5-({[(2-Methylamino-ethyl)-(2-trifluoromethyl-benzyl)-carbamoyl]-methyl}-amino)-3,4-dihydro-1H-isoquinoline-2-carboxylic acid allyl ester]
82 nM	CCCOC(=O)N1CCc2c(cccc2NCC(=O)N(CCNC)Cc2ccccc2C(F)(F)F)C1 [compound 398]
64 nM	CNCCN(Cc1ccccc1C(F)(F)F)C(=O)CNc1cccc2c1CCN(C(=O)OC(C)C)C2 [compound 399]
31 nM	CNCCN(Cc1ccccc1C(F)(F)F)C(=O)CNc1cccc2c1CCN(C(=O)OCCF)C2 [compound 400, 5-({[(2-Methylamino-ethyl)-(2-trifluoromethyl-benzyl)-carbamoyl]-methyl}-amino)-3,4-dihydro-1H-isoquinoline-2-carboxylic acid 2-fluoro-ethyl ester]
250 nM	CNCCN(Cc1ccccc1C(F)(F)F)C(=O)CNc1cccc2c1CCN(C(=O)OCC(C)C)C2 [compound 401]
198 nM	CNCCN(Cc1ccccc1C(F)(F)F)C(=O)CNc1cccc2c1CCN(C(=O)OCC(C)(C)C)C2 [compound 402]
24 nM	CCNC(=O)N1CCc2c(cccc2NCC(=O)N(CCNC)Cc2ccccc2C(F)(F)F)C1 [compound 403, 5-({[(2-Methylamino-ethyl)-(2-trifluoromethyl-benzyl)-carbamoyl]-methyl}-amino)-3,4-dihydro-1H-isoquinoline-2-carboxylic acid ethylamide]
60 nM	CNCCN(Cc1ccccc1C(F)(F)F)C(=O)CNc1cccc2c1CCN(C(=O)NC(C)C)C2 [compound 404]
257 nM	CCCCNC(=O)N1CCc2c(cccc2NCC(=O)N(CCNC)Cc2ccccc2C(F)(F)F)C1 [compound 405]
80 nM	CNCCN(Cc1ccccc1C(F)(F)F)C(=O)CNc1cccc2c1CCN(C(=O)NC(C)(C)C)C2 [compound 406]
326 nM	CNCCN(Cc1ccccc1C(F)(F)F)C(=O)CNc1cccc2c1CCN(C(=O)NC1CCCCC1)C2 [compound 407]
10 nM	CNCCN(Cc1ncccc1C(F)(F)F)C(=O)CNc1cccc2c1CCN(C(C)=O)C2 [compound 408, 2-(2-Acetyl-1,2,3,4-tetrahydro-isoquinolin-5-ylamino)-N-(2-methylamino-ethyl)-N-(3-trifluoromethyl-pyridin-2-ylmethyl)-acetamide]
8 nM	CCC(=O)N1CCc2c(cccc2NCC(=O)N(CCNC)Cc2ncccc2C(F)(F)F)C1 [compound 409, N-(2-Methylamino-ethyl)-2-(2-propionyl-1,2,3,4-tetrahydro-isoquinolin-5-ylamino)-N-(3-trifluoromethyl-pyridin-2-ylmethyl)-acetamide]
5 nM	CNCCN(Cc1ncccc1C(F)(F)F)C(=O)CNc1cccc2c1CCN(C(=O)C1CC1)C2 [compound 410, 2-(2-Cyclopropanecarbonyl-1,2,3,4-tetrahydro-isoquinolin-5-ylamino)-N-(2-methylamino-ethyl)-N-(3-trifluoromethyl-pyridin-2-ylmethyl)-acetamide]
15 nM	CCCC(=O)N1CCc2c(cccc2NCC(=O)N(CCNC)Cc2ncccc2C(F)(F)F)C1 [compound 411, 2-(2-Butyryl-1,2,3,4-tetrahydro-isoquinolin-5-ylamino)-N-(2-methylamino-ethyl)-N-(3-trifluoromethyl-pyridin-2-ylmethyl)-acetamide]
20 nM	CNCCN(Cc1ncccc1C(F)(F)F)C(=O)CNc1cccc2c1CCN(C(=O)C(C)C)C2 [compound 412, 2-(2-Isobutyryl-1,2,3,4-tetrahydro-isoquinolin-5-ylamino)-N-(2-methylamino-ethyl)-N-(3-trifluoromethyl-pyridin-2-ylmethyl)-acetamide]
8 nM	CNCCN(Cc1ncccc1C(F)(F)F)C(=O)CNc1cccc2c1CCN(C(=O)COC)C2 [compound 413, 2-[2-(2-Methoxy-acetyl)-1,2,3,4-tetrahydro-isoquinolin-5-ylamino]-N-(2-methylamino-ethyl)-N-(3-trifluoromethyl-pyridin-2-ylmethyl)-acetamide]
37 nM	CNCCN(Cc1ncccc1C(F)(F)F)C(=O)CNc1cccc2c1CCN(C(=O)C1CCC1)C2 [compound 414, 2-(2-Cyclobutanecarbonyl-1,2,3,4-tetrahydro-isoquinolin-5-ylamino)-N-(2-methylamino-ethyl)-N-(3-trifluoromethyl-pyridin-2-ylmethyl)-acetamide]

EC50	SMILES
178 nM	CNCCN(Cc1ncccc1C(F)(F)F)C(=O)CNc1cccc2c1CCN(C(=O)C(C)(C)C)C2 [compound 415]
86 nM	CNCCN(Cc1ncccc1C(F)(F)F)C(=O)CNc1cccc2c1CCN(C(=O)CC(C)C)C2 [compound 416]
148 nM	CNCCN(Cc1ncccc1C(F)(F)F)C(=O)CNc1cccc2c1CCN(C(=O)CC(C)(C)C)C2 [compound 418]
6 nM	CNCCN(Cc1ncccc1C(F)(F)F)C(=O)CNc1cccc2c1CCN(C(=O)OC)C2 [compound 419, 5-({[(2-Methylamino-ethyl)-(3-trifluoromethyl-pyridin-2-ylmethyl)-carbamoyl]-methyl}-amino)-3,4-dihydro-1H-isoquinoline-2-carboxylic acid methyl ester]
21 nM	CCOC(=O)N1CCc2c(cccc2NCC(=O)N(CCNC)Cc2ncccc2C(F)(F)F)C1 [compound 420, 5-({[(2-Methylamino-ethyl)-(3-trifluoromethyl-pyridin-2-ylmethyl)-carbamoyl]-methyl}-amino)-3,4-dihydro-1H-isoquinoline-2-carboxylic acid ethyl ester]
29 nM	C#CCOC(=O)N1CCc2c(cccc2NCC(=O)N(CCNC)Cc2ncccc2C(F)(F)F)C1 [compound 421, 5-({[(2-Methylamino-ethyl)-(3-trifluoromethyl-pyridin-2-ylmethyl)-carbamoyl]-methyl}-amino)-3,4-dihydro-1H-isoquinoline-2-carboxylic acid prop-2-ynyl ester]
33 nM	C=CCOC(=O)N1CCc2c(cccc2NCC(=O)N(CCNC)Cc2ncccc2C(F)(F)F)C1 [compound 422, 5-({[(2-Methylamino-ethyl)-(3-trifluoromethyl-pyridin-2-ylmethyl)-carbamoyl]-methyl}-amino)-3,4-dihydro-1H-isoquinoline-2-carboxylic acid allyl ester]
79 nM	CCCOC(=O)N1CCc2c(cccc2NCC(=O)N(CCNC)Cc2ncccc2C(F)(F)F)C1 [compound 423]
60 nM	CNCCN(Cc1ncccc1C(F)(F)F)C(=O)CNc1cccc2c1CCN(C(=O)OC(C)C)C2 [compound 424]
27 nM	CNCCN(Cc1ncccc1C(F)(F)F)C(=O)CNc1cccc2c1CCN(C(=O)OCCF)C2 [compound 425, 5-({[(2-Methylamino-ethyl)-(3-trifluoromethyl-pyridin-2-ylmethyl)-carbamoyl]-methyl}-amino)-3,4-dihydro-1H-isoquinoline-2-carboxylic acid 2-fluoro-ethyl ester]
74 nM	CNCCN(Cc1ncccc1C(F)(F)F)C(=O)CNc1cccc2c1CCN(C(=O)OCC(C)C)C2 [compound 426]
106 nM	CNCCN(Cc1ncccc1C(F)(F)F)C(=O)CNc1cccc2c1CCN(C(=O)OCCOC)C2 [compound 427]
120 nM	CNCCN(Cc1ncccc1C(F)(F)F)C(=O)CNc1cccc2c1CCN(C(=O)OCC(C)(C)C)C2 [compound 428]
7 nM	CCNC(=O)N1CCc2c(cccc2NCC(=O)N(CCNC)Cc2ncccc2C(F)(F)F)C1 [compound 429, 5-({[(2-Methylamino-ethyl)-(3-trifluoromethyl-pyridin-2-ylmethyl)-carbamoyl]-methyl}-amino)-3,4-dihydro-1H-isoquinoline-2-carboxylic acid ethylamide]
9 nM	CNCCN(Cc1ncccc1C(F)(F)F)C(=O)CNc1cccc2c1CCN(C(=O)NC(C)C)C2 [compound 430, 5-({[(2-Methylamino-ethyl)-(3-trifluoromethyl-pyridin-2-ylmethyl)-carbamoyl]-methyl}-amino)-3,4-dihydro-1H-isoquinoline-2-carboxylic acid isopropylamide]
120 nM	CCCCNC(=O)N1CCc2c(cccc2NCC(=O)N(CCNC)Cc2ncccc2C(F)(F)F)C1 [compound 431]
42 nM	CNCCN(Cc1ncccc1C(F)(F)F)C(=O)CNc1cccc2c1CCN(C(=O)NC(C)(C)C)C2 [compound 432, 5-({[(2-Methylamino-ethyl)-(3-trifluoromethyl-pyridin-2-ylmethyl)-carbamoyl]-methyl}-amino)-3,4-dihydro-1H-isoquinoline-2-carboxylic acid tert-butylamide]
166 nM	CNCCN(Cc1ncccc1C(F)(F)F)C(=O)CNc1cccc2c1CCN(C(=O)NC1CCCCC1)C2 [compound 433]
7 nM	CNCCN(Cc1ccccc1Br)C(=O)CNc1cccc2c1CCN(CC1CC1)C2 [compound 435, N-(2-Bromo-benzyl)-2-(2-cyclopropylmethyl-1,2,3,4-tetrahydro-isoquinolin-5-ylamino)-N-(2-methylamino-ethyl)-acetamide]
